Among the data in patent publication US20230310428A1, “EGFR INHIBITOR AND PREPARATION METHOD AND USE THEREOF” (HONGYUN BIOTECH CO., LTD., priority 2020, published 2023) are IC50 values, retold here.

Common to all, as to experiment: Growth inhibitory activity of compounds on BaF3 cell lines stably transfected with kinase (MTS, 48 h)
Holding throughout (type): cell-based

Test [1] addresses T1, various mutants of kinase EGFR (BaF3 cell lines stably transfected with kinase) (Homo sapiens, UniProt P00533, L858R).
T1 construct: expressed in transfected cells; host or cells: BaF3
The note with it: BaF3 cells stably transfected with EGFR L858R, read-out: IC50, growth inhibition, L858R. On the procedure: (§1) The activity of compounds against various mutants of kinase EGFR was evaluated by their effect of inhibiting growth of BaF3 cell lines stably transfected with kinase. The specific test method was given as follows:
(§2) 1) Culture medium: DMEM (Dulbecco’s modified eagle medium) or RPMI 1640 (containing 10% fetal bovine serum, 100 µg/mL ampicillin, 100 µg/mL streptomycin).
(§3) 2) Reagent: MTS reaction solution (containing 2 mg/mL of MTS [3-(4,5-dimethylthiazol-2-yl)-5-(3-carboxymethoxyphenyl)-2-(4-sulfophenyl)-2H-tetrazoliu m, inner Salt]; 100 µg/mL of PES ([…])).
(§4) 3) Compound test: cells were incubated into a 96-well culture plate, the volume of cytosol was 90 µL, and then 10 µL of the compound at each gradient concentration was added. That is, the highest concentration was 10 µM, which was diluted stepwise by ⅓, and 8 concentration points were set in total; 0.1% DMSO (dimethyl sulfoxide) was contained in the system. The cell plate with uniformly mixed compound was cultured in a cell culture incubator (37° C.; 5% CO2) for 48 h, then 20 µL of MTS reaction solution was added, uniformly mixed and incubated in the cell culture incubator (37° C.; 5% CO2) for 1-4 h. OD values at 490 nm were measured by a microplate reader (VARIOSKAN FLASH, Thermo). Two parallels were set in each group of experiments, with 0.1% (a final concentration) DMSO as a negative control, and a culture medium without cells and compounds as a blank control. The cell growth inhibition rate was calculated by the following formula: […]
(§5) 4) IC50 calculation: The semi-inhibitory concentration of the compounds acting on cells was calculated using GradPad Prism 5 software according to the measured cell growth inhibition rate.

Test [2] addresses T2, various mutants of kinase EGFR (BaF3 cell lines stably transfected with kinase) (Homo sapiens, UniProt P00533, L858R/T790M).
T2 construct: expressed in transfected cells; host or cells: BaF3
The note with it: BaF3 cells stably transfected with EGFR L858R/T790M, read-out: IC50, growth inhibition, L858R/T790M. On the procedure:
as §1, §2, §3, §4, §5

The target in test [3] is T3, various mutants of kinase EGFR (BaF3 cell lines stably transfected with kinase) (Homo sapiens, UniProt P00533, T790M/C797S, form not given).
T3 construct: other: BaF3 cells stably transfected with EGFR Δ19Del/T790M/C797S; MTS, 48; other: BaF3 cell line stably transfected with EGFR Δ19Del/T790M/C7
The note with it: BaF3 cells stably transfected with EGFR Δ19Del/T790M/C797S, read-out: IC50, growth inhibition, Δ19Del/T790M/C797S. The protocol:
as §1, §2, §3, §4, §5

Test [4] concerns the target T4, various mutants of kinase EGFR (BaF3 cell lines stably transfected with kinase) (Homo sapiens, UniProt P00533).
T4 construct: other: BaF3 cells stably transfected with EGFR Δ19Del; MTS, 48 h; other: BaF3 cell line stably transfected with EGFR Δ19Del
Conditions: BaF3 cells stably transfected with EGFR Δ19Del, read-out: IC50, growth inhibition, Δ19Del. On the procedure:
as §1, §2, §3, §4, §5

Test [5] concerns the target T5, various mutants of kinase EGFR (BaF3 cell lines stably transfected with kinase) (Homo sapiens, UniProt P00533, C797S/L858R/T790M).
T5 construct: expressed in transfected cells; host or cells: BaF3
Conditions: BaF3 cells stably transfected with EGFR L858R/T790M/C797S, read-out: IC50, growth inhibition, L858R/T790M/C797S. On the procedure: as §1, §2, §3, §4, §5

The target of test [6] is T6, various mutants of kinase EGFR (BaF3 cell lines stably transfected with kinase) (Homo sapiens, UniProt P00533, T790M, form not given).
T6 construct: other: BaF3 cells stably transfected with EGFR Δ19Del/T790M; MTS, 48 h; other: BaF3 cell line stably transfected with EGFR Δ19Del/T790M; MTS, 48
Conditions: BaF3 cells stably transfected with EGFR Δ19Del/T790M, read-out: IC50, growth inhibition, Δ19Del/T790M. The protocol:
as §1, §2, §3, §4, §5

T6 sequence (P00533 with tags, fused parts or gaps DEL746-750/T790M, form open): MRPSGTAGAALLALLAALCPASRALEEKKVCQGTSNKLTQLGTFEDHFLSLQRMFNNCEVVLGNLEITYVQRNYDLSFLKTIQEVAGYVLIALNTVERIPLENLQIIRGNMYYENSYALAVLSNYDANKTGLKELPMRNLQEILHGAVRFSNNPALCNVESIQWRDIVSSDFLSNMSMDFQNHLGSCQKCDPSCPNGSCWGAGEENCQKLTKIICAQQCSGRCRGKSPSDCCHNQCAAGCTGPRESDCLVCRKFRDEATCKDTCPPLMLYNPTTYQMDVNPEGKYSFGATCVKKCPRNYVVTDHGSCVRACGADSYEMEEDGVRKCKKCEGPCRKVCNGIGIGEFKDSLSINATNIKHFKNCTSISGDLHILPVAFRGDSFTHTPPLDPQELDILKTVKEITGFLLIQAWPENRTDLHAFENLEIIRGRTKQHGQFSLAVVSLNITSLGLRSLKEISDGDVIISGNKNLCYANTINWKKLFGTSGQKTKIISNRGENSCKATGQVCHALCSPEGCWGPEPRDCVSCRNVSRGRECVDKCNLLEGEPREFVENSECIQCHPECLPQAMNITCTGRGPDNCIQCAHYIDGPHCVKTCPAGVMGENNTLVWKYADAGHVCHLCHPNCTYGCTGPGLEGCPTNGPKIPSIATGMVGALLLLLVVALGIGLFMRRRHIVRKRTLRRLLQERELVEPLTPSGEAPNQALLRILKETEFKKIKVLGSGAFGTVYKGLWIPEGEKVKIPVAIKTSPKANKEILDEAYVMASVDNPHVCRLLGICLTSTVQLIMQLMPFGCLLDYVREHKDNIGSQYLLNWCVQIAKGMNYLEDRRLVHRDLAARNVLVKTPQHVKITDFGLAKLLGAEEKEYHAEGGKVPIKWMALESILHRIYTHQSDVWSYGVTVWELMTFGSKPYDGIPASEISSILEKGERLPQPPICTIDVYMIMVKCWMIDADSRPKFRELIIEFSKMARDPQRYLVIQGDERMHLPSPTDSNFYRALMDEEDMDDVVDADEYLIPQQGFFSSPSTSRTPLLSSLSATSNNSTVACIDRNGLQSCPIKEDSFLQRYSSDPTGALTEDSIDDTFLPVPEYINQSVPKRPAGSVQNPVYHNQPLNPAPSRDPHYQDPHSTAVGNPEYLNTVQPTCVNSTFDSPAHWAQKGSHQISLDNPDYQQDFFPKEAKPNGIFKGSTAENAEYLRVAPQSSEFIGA
T2 sequence (P00533 25-1210 T790M/L858R): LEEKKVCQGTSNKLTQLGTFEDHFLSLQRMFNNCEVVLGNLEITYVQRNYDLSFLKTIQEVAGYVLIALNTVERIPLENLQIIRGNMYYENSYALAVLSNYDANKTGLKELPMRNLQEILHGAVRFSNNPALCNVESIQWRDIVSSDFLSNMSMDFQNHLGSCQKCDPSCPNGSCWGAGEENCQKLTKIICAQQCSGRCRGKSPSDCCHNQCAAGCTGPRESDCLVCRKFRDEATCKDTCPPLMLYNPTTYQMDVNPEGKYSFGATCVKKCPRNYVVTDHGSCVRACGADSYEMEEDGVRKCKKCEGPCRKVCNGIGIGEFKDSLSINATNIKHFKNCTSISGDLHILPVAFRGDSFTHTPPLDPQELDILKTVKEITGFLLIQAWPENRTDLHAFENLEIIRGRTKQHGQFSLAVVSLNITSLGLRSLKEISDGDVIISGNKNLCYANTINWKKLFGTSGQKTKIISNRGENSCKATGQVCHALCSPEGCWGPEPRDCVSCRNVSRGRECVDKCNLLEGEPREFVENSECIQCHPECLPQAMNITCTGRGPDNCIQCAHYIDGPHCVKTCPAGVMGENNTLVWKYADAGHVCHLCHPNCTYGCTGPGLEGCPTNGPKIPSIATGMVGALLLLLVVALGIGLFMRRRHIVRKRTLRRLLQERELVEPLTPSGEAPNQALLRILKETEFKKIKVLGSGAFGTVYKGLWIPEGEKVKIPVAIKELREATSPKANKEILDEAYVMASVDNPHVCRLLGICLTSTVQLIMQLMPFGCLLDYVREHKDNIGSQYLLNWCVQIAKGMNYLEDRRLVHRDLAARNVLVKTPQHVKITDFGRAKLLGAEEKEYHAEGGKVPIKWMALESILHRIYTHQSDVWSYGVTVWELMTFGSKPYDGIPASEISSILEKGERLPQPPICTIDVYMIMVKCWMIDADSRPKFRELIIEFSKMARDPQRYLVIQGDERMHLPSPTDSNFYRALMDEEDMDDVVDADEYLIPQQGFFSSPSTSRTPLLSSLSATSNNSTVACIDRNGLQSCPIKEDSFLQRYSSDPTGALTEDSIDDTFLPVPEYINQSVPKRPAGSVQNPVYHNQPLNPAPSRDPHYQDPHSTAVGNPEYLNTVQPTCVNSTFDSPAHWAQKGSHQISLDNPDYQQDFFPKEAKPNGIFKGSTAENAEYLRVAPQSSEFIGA
T3 sequence (P00533 with tags, fused parts or gaps DEL746-750/T790M/C797S, form open): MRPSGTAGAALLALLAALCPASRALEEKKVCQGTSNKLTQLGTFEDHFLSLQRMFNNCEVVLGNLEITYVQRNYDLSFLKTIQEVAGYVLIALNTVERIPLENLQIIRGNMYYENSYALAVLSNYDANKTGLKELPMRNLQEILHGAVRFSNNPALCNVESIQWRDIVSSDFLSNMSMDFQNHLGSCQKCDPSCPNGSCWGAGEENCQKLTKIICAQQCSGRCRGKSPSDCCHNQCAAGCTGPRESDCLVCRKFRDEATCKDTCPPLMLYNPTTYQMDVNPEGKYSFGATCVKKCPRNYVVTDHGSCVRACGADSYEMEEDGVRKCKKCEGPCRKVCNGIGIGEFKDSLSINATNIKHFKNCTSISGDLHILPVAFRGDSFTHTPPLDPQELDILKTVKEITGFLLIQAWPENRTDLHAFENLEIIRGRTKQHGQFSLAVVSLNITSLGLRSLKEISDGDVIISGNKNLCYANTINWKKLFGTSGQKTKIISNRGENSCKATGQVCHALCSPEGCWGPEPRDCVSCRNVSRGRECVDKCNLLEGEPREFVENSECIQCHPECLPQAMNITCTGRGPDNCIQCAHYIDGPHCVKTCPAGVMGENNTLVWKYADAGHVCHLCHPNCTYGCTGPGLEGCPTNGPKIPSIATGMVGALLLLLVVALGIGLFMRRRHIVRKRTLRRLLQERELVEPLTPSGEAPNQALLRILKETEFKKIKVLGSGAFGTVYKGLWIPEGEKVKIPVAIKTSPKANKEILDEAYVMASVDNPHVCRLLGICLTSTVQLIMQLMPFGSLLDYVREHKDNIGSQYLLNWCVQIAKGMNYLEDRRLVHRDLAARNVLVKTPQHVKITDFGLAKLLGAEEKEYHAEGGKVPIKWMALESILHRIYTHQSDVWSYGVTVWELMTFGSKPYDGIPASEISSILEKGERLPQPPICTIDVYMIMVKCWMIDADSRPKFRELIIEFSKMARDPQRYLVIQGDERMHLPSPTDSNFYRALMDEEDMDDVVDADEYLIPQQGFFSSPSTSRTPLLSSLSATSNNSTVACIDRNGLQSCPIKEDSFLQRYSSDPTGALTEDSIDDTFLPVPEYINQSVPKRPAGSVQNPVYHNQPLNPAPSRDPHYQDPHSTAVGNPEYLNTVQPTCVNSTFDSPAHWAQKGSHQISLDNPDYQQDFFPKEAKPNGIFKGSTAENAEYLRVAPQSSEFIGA
T4 sequence (P00533 with tags, fused parts or gaps DEL746-750): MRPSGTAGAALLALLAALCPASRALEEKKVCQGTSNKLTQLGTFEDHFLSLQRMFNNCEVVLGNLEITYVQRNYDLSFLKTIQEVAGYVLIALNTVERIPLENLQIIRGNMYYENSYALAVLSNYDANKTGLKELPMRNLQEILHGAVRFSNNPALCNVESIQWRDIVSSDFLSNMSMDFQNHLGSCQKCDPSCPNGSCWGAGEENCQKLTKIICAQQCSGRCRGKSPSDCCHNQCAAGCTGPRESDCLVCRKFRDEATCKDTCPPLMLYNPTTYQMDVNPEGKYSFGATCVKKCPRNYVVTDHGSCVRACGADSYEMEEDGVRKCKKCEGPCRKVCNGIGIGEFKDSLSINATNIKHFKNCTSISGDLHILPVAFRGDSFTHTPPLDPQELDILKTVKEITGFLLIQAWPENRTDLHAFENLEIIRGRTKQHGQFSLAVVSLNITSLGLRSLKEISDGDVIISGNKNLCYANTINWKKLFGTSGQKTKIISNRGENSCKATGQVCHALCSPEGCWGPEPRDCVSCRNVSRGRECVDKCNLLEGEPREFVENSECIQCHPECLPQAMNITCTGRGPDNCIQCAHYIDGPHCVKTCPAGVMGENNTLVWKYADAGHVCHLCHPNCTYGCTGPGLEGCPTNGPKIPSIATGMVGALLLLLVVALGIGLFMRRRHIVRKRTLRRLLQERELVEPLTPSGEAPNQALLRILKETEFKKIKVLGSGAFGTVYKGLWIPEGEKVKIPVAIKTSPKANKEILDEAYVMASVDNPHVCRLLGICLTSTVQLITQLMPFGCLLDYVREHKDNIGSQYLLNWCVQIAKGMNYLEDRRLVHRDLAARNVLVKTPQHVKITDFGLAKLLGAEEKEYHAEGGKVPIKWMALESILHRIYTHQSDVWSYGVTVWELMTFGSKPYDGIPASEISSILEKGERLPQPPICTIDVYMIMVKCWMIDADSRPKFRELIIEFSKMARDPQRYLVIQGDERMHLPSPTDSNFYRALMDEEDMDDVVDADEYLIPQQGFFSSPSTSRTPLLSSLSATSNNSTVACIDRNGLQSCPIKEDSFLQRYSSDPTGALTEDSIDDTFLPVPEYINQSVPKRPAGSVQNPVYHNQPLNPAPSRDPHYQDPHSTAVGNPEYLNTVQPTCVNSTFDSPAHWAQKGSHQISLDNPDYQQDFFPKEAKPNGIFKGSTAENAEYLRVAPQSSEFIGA

Regarding `CCS(=O)(=O)N(C)c1c(Nc2nc(Nc3cc(C)c(N4CCC(N5CCN(C)CC5)CC4)cc3OC)ncc2Cl)ccc2nccnc12` [Compound I-114], the IC50 in test [1], in test [2], in test [3], in test [4], in test [5] and in test [6] was at most 50 nM each time.
Turning to `CCc1cc(Nc2ncc(Cl)c(Nc3ccc4nccnc4c3N(C)S(=O)(=O)CC)n2)c(OC)cc1N1CCC(N2CCN(C)CC2)CC1` [Compound I-115], the IC50 in test [1], in test [2], in test [3], in test [4], in test [5] and in test [6] was at most 50 nM in each case.
Regarding `CCc1cc(Nc2ncc(Cl)c(Nc3ccc4nccnc4c3N(C)S(=O)(=O)CC)n2)c(OC(F)(F)F)cc1N1CCC(N2CCN(C)CC2)CC1` [Compound I-116], the IC50 in test [1] was 50 to 500 nM; in test [2], 50 to 500 nM; in test [3] it was at most 50 nM; in test [4], 50 to 500 nM; in test [5], 50 to 500 nM; in test [6], 50 to 500 nM.
Regarding `CCc1cc(Nc2ncc(Cl)c(Nc3ccc4nccnc4c3N(C)S(=O)(=O)CC)n2)c(OC)cc1N1CCC(N(C)C)CC1` [Compound I-117], the IC50 in test [1], in test [2], in test [3], in test [4], in test [5] and in test [6] was at most 50 nM in each case.
As for `CCc1cc(Nc2ncc(Cl)c(Nc3ccc4nccnc4c3N(C)S(=O)(=O)CC)n2)c(OC)cc1N1CCC(N(C)C)C1` (stereo not drawn) [Compound I-118], the IC50 in test [1], in test [2], in test [3], in test [4], in test [5] and in test [6] was at most 50 nM in each case.
With `CCc1cc(Nc2ncc(Cl)c(Nc3ccc4nccnc4c3N(C)S(=O)(=O)C3CC3)n2)c(OC)cc1N1CCC(N2CCN(C)CC2)CC1` [Compound I-120], the IC50 in test [1], in test [2], in test [3], in test [4], in test [5] and in test [6] was at most 50 nM each time.
For the compound `CCc1cc(Nc2ncc(Cl)c(Nc3ccc4nccnc4c3N(C)S(=O)(=O)C3CC3)n2)c(OC(F)(F)F)cc1N1CCC(N2CCN(C)CC2)CC1` [Compound I-121], the IC50 in test [1], in test [2], in test [3], in test [4], in test [5] and in test [6] was 50 to 500 nM in each case.
Regarding `CCc1cc(Nc2ncc(Cl)c(Nc3ccc4nccnc4c3N(C)S(=O)(=O)C3CC3)n2)c(OC)cc1N1CCC(N(C)C)CC1` [Compound I-122], the IC50 in test [1], in test [2], in test [3], in test [4], in test [5] and in test [6] was at most 50 nM throughout.
Turning to `CCc1cc(Nc2ncc(Cl)c(Nc3ccc4nccnc4c3N(C)S(=O)(=O)C3CC3)n2)c(OC)cc1N1CCC(N(C)C)C1` (stereo not drawn) [Compound I-123], the IC50 in test [1] is 50 to 500 nM; in test [2] it was at most 50 nM; in test [3] it was at most 50 nM; in test [4], 50 to 500 nM; in test [5] it was 50 to 500 nM; in test [6], 50 to 500 nM.
With `COc1cc(N2CCC(N3CCN(C)CC3)CC2)c(C)cc1Nc1ncc(Br)c(Nc2ccc3nccnc3c2N(C)S(=O)(=O)C(F)(F)F)n1` [Compound I-124], the IC50 in test [1] is 500 to 2500 nM; in test [2], 50 to 500 nM; in test [3], at most 50 nM; in test [4], 500 to 2500 nM; in test [5], 50 to 500 nM; in test [6], 50 to 500 nM.
As to `CCc1cc(Nc2ncc(Br)c(Nc3ccc4nccnc4c3N(C)S(=O)(=O)C(F)(F)F)n2)c(OC)cc1N1CCC(N2CCN(C)CC2)CC1` [Compound I-125], the IC50 in test [1] is 50 to 500 nM; in test [2], 50 to 500 nM; in test [3] it was at most 50 nM; in test [4], 500 to 2500 nM; in test [5], 50 to 500 nM; in test [6], 50 to 500 nM.
As for `CCc1cc(Nc2ncc(Br)c(Nc3ccc4nccnc4c3N(C)S(=O)(=O)C(F)(F)F)n2)c(OC(F)(F)F)cc1N1CCC(N2CCN(C)CC2)CC1` [Compound I-126], the IC50 in test [1] was in the range of 500 to 2500 nM; in test [2], 500 to 2500 nM; in test [3], 50 to 500 nM; in test [4], 500 to 2500 nM; in test [5], 50 to 500 nM; in test [6], 50 to 500 nM.
On to `CCc1cc(Nc2ncc(Br)c(Nc3ccc4nccnc4c3N(C)S(=O)(=O)C(F)(F)F)n2)c(OC)cc1N1CCC(N(C)C)CC1` [Compound I-127], for which the IC50 is 500 to 2500 nM in test [1]; 50 to 500 nM in test [2]; at most 50 nM in test [3]; 500 to 2500 nM in test [4]; 50 to 500 nM in test [5]; 50 to 500 nM in test [6].
With `CCc1cc(Nc2ncc(Br)c(Nc3ccc4nccnc4c3N(C)S(=O)(=O)C(F)(F)F)n2)c(OC)cc1N1CCC(N(C)C)C1` (stereo not drawn) [Compound I-128], the IC50 in test [1] was 500 to 2500 nM; in test [2], 50 to 500 nM; in test [3] it was at most 50 nM; in test [4], 500 to 2500 nM; in test [5], 50 to 500 nM; in test [6], 50 to 500 nM.
For `COc1cc(N2CCC(N3CCN(C)CC3)CC2)c(C)cc1Nc1ncc(Cl)c(Nc2ccc3nccnc3c2N(C)S(=O)(=O)C(F)(F)F)n1` [Compound I-129], the IC50 in test [1] was in the range of 500 to 2500 nM; in test [2] it was 500 to 2500 nM; in test [3] it was 50 to 500 nM; in test [4], 500 to 2500 nM; in test [5], 50 to 500 nM; in test [6] it was 50 to 500 nM.
`CCc1cc(Nc2ncc(Cl)c(Nc3ccc4nccnc4c3N(C)S(=O)(=O)C(F)(F)F)n2)c(OC)cc1N1CCC(N2CCN(C)CC2)CC1` [Compound I-130]: the IC50 in test [1] was 50 to 500 nM; in test [2], 50 to 500 nM; in test [3], 50 to 500 nM; in test [4] it was 50 to 500 nM; in test [5] it was 50 to 500 nM; in test [6] it was at most 50 nM.
Take `CCc1cc(Nc2ncc(Cl)c(Nc3ccc4nccnc4c3N(C)S(=O)(=O)C(F)(F)F)n2)c(OC(F)(F)F)cc1N1CCC(N2CCN(C)CC2)CC1` [Compound I-131]: the IC50 in test [1] was in the range of 500 to 2500 nM; in test [2], 500 to 2500 nM; in test [3], 50 to 500 nM; in test [4], 500 to 2500 nM; in test [5], 50 to 500 nM; in test [6], 50 to 500 nM.
Consider `CCc1cc(Nc2ncc(Cl)c(Nc3ccc4nccnc4c3N(C)S(=O)(=O)C(F)(F)F)n2)c(OC)cc1N1CCC(N(C)C)CC1` [Compound I-132], for which the IC50 was 500 to 2500 nM in test [1]; 50 to 500 nM in test [2]; at most 50 nM in test [3]; 500 to 2500 nM in test [4]; 50 to 500 nM in test [5]; 50 to 500 nM in test [6].
Regarding `CCc1cc(Nc2ncc(Cl)c(Nc3ccc4nccnc4c3N(C)S(=O)(=O)C(F)(F)F)n2)c(OC)cc1N1CCC(N(C)C)C1` (stereo not drawn) [Compound I-133], the IC50 was 500 to 2500 nM in test [1]; 50 to 500 nM in test [2]; at most 50 nM in test [3]; 500 to 2500 nM in test [4]; 50 to 500 nM in test [5]; 50 to 500 nM in test [6].
